Results as given in US8889874B2, “Imidazolone-chalcone derivatives as potential anticancer agent and process for the preparation thereof” (Council of Scientific and Industrial Research, priority 2010, dated 2014).
Where two headings read alike, the source gives them in different places.

What was measured:
Type in all cases: cell-based, human
A498 (renal) = test: NCI anticancer screen, SRB assay, 48 h; conditions: Homo sapiens
Method in brief: (§1)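 Sulforhodamine B protein assay read cell growth after 48 h of continuous compound exposure. Dose-response curves per cell line used at least five 10-fold-diluted concentrations, within a panel of fifty-three human lines from nine tumour types.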

[1] = system: A549/ATCC (non-small cell lung); test: NCI anticancer screen, SRB assay, 48 h; conditions: Homo sapiens
Method in brief: as §1

ACHN (renal) = test: NCI anticancer screen, SRB assay, 48 h; conditions: Homo sapiens
Method in brief: as §1

BT-549 (breast) = test: NCI anticancer screen, SRB assay, 48 h; conditions: Homo sapiens
Method in brief: as §1

COLO 205 (colon) = test: NCI anticancer screen, SRB assay, 48 h; conditions: Homo sapiens, COLO 205
Method in brief: as §1

HCC-2998 (colon) = test: NCI anticancer screen, SRB assay, 48 h; conditions: Homo sapiens
Method in brief: as §1

[2] = system: HOP-92 (non-small cell lung); test: NCI anticancer screen, SRB assay, 48 h; conditions: Homo sapiens
Method in brief: as §1

HS 578T (breast) = test: NCI anticancer screen, SRB assay, 48 h; conditions: Homo sapiens
Method in brief: as §1

HT29 (colon) = test: NCI anticancer screen, SRB assay, 48 h; conditions: Homo sapiens
Method in brief: as §1

KM12 (colon) = test: NCI anticancer screen, SRB assay, 48 h; conditions: Homo sapiens
Method in brief: as §1

LOX IMVI (melanoma) = test: NCI anticancer screen, SRB assay, 48 h; conditions: Homo sapiens
Method in brief: as §1

M14 (melanoma) = test: NCI anticancer screen, SRB assay, 48 h; conditions: Homo sapiens
Method in brief: as §1

MDA-MB-231/ATCC (breast) = test: NCI anticancer screen, SRB assay, 48 h; conditions: Homo sapiens
Method in brief: as §1

[3] = system: NCI-H23 (non-small cell lung); test: NCI anticancer screen, SRB assay, 48 h; conditions: Homo sapiens
Method in brief: as §1

[4] = system: NCI-H460 (non-small cell lung); test: NCI anticancer screen, SRB assay, 48 h; conditions: Homo sapiens
Method in brief: as §1

OVCAR-3 (ovarian) = test: NCI anticancer screen, SRB assay, 48 h; conditions: Homo sapiens
Method in brief: as §1

PC-3 (prostate) = test: NCI anticancer screen, SRB assay, 48 h; conditions: Homo sapiens
Method in brief: as §1

SF-295 (CNS) = test: NCI anticancer screen, SRB assay, 48 h; conditions: Homo sapiens
Method in brief: as §1

SF-539 (CNS) = test: NCI anticancer screen, SRB assay, 48 h; conditions: Homo sapiens
Method in brief: as §1

SK-MEL-2 (melanoma) = test: NCI anticancer screen, SRB assay, 48 h; conditions: Homo sapiens
Method in brief: as §1

SK-MEL-28 (melanoma) = test: NCI anticancer screen, SRB assay, 48 h; conditions: Homo sapiens
Method in brief: as §1

SN12C (renal) = test: NCI anticancer screen, SRB assay, 48 h; conditions: Homo sapiens, SN12C
Method in brief: as §1

SNB-75 (CNS) = test: NCI anticancer screen, SRB assay, 48 h; conditions: Homo sapiens
Method in brief: as §1

TD-47D (breast) = test: NCI anticancer screen, SRB assay, 48 h; conditions: Homo sapiens
Method in brief: as §1

Breast cancer cell lines = test: NCI anticancer screen, SRB assay, panel summary; conditions: Homo sapiens
Method in brief: as §1

CNS cancer cell lines = test: NCI anticancer screen, SRB assay, panel summary; conditions: for GI50: Homo sapiens
Method in brief: as §1

Colon cancer cell lines = test: NCI anticancer screen, SRB assay, panel summary; conditions: for GI50: Homo sapiens
Method in brief: as §1

[5] = system: Leukemia cancer cell lines; test: NCI anticancer screen, SRB assay, panel summary; conditions: Homo sapiens
Method in brief: as §1

[6] = system: Melanoma cancer cell lines; test: NCI anticancer screen, SRB assay, panel summary; conditions: for GI50: Homo sapiens
Method in brief: as §1

[7] = system: Non-small cell lung cancer cell lines; test: NCI anticancer screen, SRB assay, panel summary; conditions: Homo sapiens
Method in brief: as §1

[8] = system: Ovarian cancer cell lines; test: NCI anticancer screen, SRB assay, panel summary; conditions: Homo sapiens
Method in brief: as §1

[9] = system: Prostate cancer cell lines; test: NCI anticancer screen, SRB assay, panel summary
Method in brief: as §1

Renal cancer cell lines = test: NCI anticancer screen, SRB assay, panel summary; conditions: Homo sapiens
Method in brief: as §1

[10] = 48 h exposure, SRB, read-out: GI50
[11] = read-out: pGI50 (-log of molar concentration causing 50% inhibition of net cell growth) (converted)

COc1ccc(-c2cn(-c3cccc(C(=O)/C=C/c4ccc(O)c(OC)c4)c3)c(=O)[nH]2)cc1 [3b, 1-3-[(E)-3-(4-hydroxy-3-methoxyphenyl)-2-propenoyl]phenyl-4-(4-methoxyphenyl)-2,3-dihydro-1H-2-imidazolone]
GI50 (A498 (renal); [10]): 3.72 µM
GI50 (A498 (renal); [11]): 3.72 µM
GI50 [1, 10]: 4.14 µM
GI50 [1, 11]: 4.17 µM
GI50 (ACHN (renal); [10]): 3.4 µM
GI50 (ACHN (renal); [11]): 3.39 µM
GI50 (BT-549 (breast); [10]): 4.57 µM
GI50 (BT-549 (breast); [11]): 4.57 µM
GI50 (COLO 205 (colon); COLO205, read-out: pGI50 (-log of molar concentration causing 50% inhibition of net cell growth) (converted)): 6.61 µM
GI50 (COLO 205 (colon); [10]): 6.61 µM
GI50 (HCC-2998 (colon); [10]): 2.32 µM
GI50 (HCC-2998 (colon); [11]): 2.34 µM
GI50 [2, 10]: 2.96 µM
GI50 [2, 11]: 2.95 µM
GI50 (HS 578T (breast); [10]): 4.25 µM
GI50 (HS 578T (breast); [11]): 4.27 µM
GI50 (HT29 (colon); HT-29, 48 h exposure, SRB, read-out: GI50): 3.84 µM
GI50 (HT29 (colon); HT-29, read-out: pGI50 (-log of molar concentration causing 50% inhibition of net cell growth) (converted)): 3.8 µM
GI50 (KM12 (colon); [10]): 1.77 µM
GI50 (KM12 (colon); [11]): 1.78 µM
GI50 (LOX IMVI (melanoma); [10]): 2.44 µM
GI50 (LOX IMVI (melanoma); [11]): 2.45 µM
GI50 (M14 (melanoma); [10]): 5.14 µM
GI50 (M14 (melanoma); [11]): 5.13 µM
GI50 (MDA-MB-231/ATCC (breast); [10]): 5.25 µM
GI50 (MDA-MB-231/ATCC (breast); [11]): 5.25 µM
GI50 [3, 10]: 2.85 µM
GI50 [3, 11]: 2.82 µM
GI50 [4, 10]: 3.23 µM
GI50 [4, 11]: 3.24 µM
GI50 (OVCAR-3 (ovarian); [10]): 2.7 µM
GI50 (OVCAR-3 (ovarian); [11]): 2.69 µM
GI50 (PC-3 (prostate); PC-3, read-out: pGI50 (-log of molar concentration causing 50% inhibition of net cell growth) (converted)): 3.02 µM
GI50 (PC-3 (prostate); one prostate cancer cell line (PC-3), exposure at least 48 hrs, read-out: GI50): 3.05 µM
GI50 (SF-295 (CNS); [10]): 13.9 µM
GI50 (SF-295 (CNS); [11]): 13.8 µM
GI50 (SF-539 (CNS); [10]): 2.25 µM
GI50 (SF-539 (CNS); [11]): 2.24 µM
GI50 (SK-MEL-2 (melanoma); [10]): 5.54 µM
GI50 (SK-MEL-2 (melanoma); [11]): 5.5 µM
GI50 (SK-MEL-28 (melanoma); [10]): 2.03 µM
GI50 (SK-MEL-28 (melanoma); [11]): 2.04 µM
GI50 (SN12C (renal); SN 12C, read-out: pGI50 (-log of molar concentration causing 50% inhibition of net cell growth) (converted)): 4.07 µM
GI50 (SN12C (renal); [10]): 4.11 µM
GI50 (SNB-75 (CNS); [10]): 4.73 µM
GI50 (SNB-75 (CNS); [11]): 4.68 µM
GI50 (TD-47D (breast); [10]): 3.6 µM
GI50 (TD-47D (breast); [11]): 3.63 µM
GI50 (Breast cancer cell lines; Breast panel, log of concentration in mol/L causing 50% inhibition of net cell growth, read-out: mean graph midpoint (MG_MID) of Log10 GI50 (converted)): 4.17 µM
LC50 (Breast cancer cell lines; Breast panel, log of concentration leading to 50% net cell death, read-out: mean graph midpoint (MG_MID) of Log10 LC50 (converted)): 100 µM
GI50 (Breast cancer cell lines; five breast cancer cell lines, exposure at least 48 hrs, read-out: GI50, range over the panel): 3.18 to 5.25 µM
mean graph midpoint (MG_MID) of Log10 LC50 (CNS cancer cell lines; CNS panel, log of concentration leading to 50% net cell death): 4.06
GI50 (CNS cancer cell lines; CNS panel, log of concentration in mol/L causing 50% inhibition of net cell growth, read-out: mean graph midpoint (MG_MID) of Log10 GI50 (converted)): 4.68 µM
GI50 (CNS cancer cell lines; six CNS cancer cell lines, exposure at least 48 hrs, read-out: GI50, range over the panel): 2.25 to 13.9 µM
mean graph midpoint (MG_MID) of Log10 LC50 (Colon cancer cell lines; Colon panel, log of concentration leading to 50% net cell death): 4.33
GI50 (Colon cancer cell lines; Colon panel, log of concentration in mol/L causing 50% inhibition of net cell growth, read-out: mean graph midpoint (MG_MID) of Log10 GI50 (converted)): 2.88 µM
GI50 (Colon cancer cell lines; seven colon cancer cell lines, exposure at least 48 hrs, read-out: GI50, range over the panel): 1.77 to 6.61 µM
GI50 ([5]; Leukemia panel, log of concentration in mol/L causing 50% inhibition of net cell growth, read-out: mean graph midpoint (MG_MID) of Log10 GI50 (converted)): 1.78 µM
LC50 ([5]; Leukemia panel, log of concentration leading to 50% net cell death, read-out: mean graph midpoint (MG_MID) of Log10 LC50 (converted)): 38 µM
GI50 ([5]; two leukemia cancer cell lines (RPMI-8226 and K-562), exposure at least 48 hrs, read-out: GI50, range over the panel): 1.35 to 2.35 µM
GI50 ([6]; Melanoma panel, log of concentration in mol/L causing 50% inhibition of net cell growth, read-out: mean graph midpoint (MG_MID) of Log10 GI50 (converted)): 4.07 µM
GI50 ([6]; nine melanoma cancer cell lines, exposure at least 48 hrs, read-out: GI50, range over the panel): 2.03 to 13.3 µM
mean graph midpoint (MG_MID) of Log10 LC50 ([6]; Melanoma panel, log of concentration leading to 50% net cell death): 4.13
GI50 ([7]; Non-small cell lung panel, log of concentration in mol/L causing 50% inhibition of net cell growth, read-out: mean graph midpoint (MG_MID) of Log10 GI50 (converted)): 4.68 µM
LC50 ([7]; Non-small cell lung panel, log of concentration leading to 50% net cell death, read-out: mean graph midpoint (MG_MID) of Log10 LC50 (converted)): ≥ 100 µM
GI50 ([7]; nine non-small cell lung cancer cell lines, exposure at least 48 hrs, read-out: GI50, range over the panel): 2.85 to 13.4 µM
GI50 ([8]; Ovarian panel, log of concentration in mol/L causing 50% inhibition of net cell growth, read-out: mean graph midpoint (MG_MID) of Log10 GI50 (converted)): 3.89 µM
LC50 ([8]; Ovarian panel, log of concentration leading to 50% net cell death, read-out: mean graph midpoint (MG_MID) of Log10 LC50 (converted)): 100 µM
GI50 ([8]; six ovarian cancer cell lines, exposure at least 48 hrs, read-out: GI50, range over the panel): 2.56 to 6.08 µM
GI50 ([9]; Homo sapiens, log of concentration in mol/L causing 50% inhibition of net cell growth, read-out: mean graph midpoint (MG_MID) of Log10 GI50 (converted)): 3.02 µM
LC50 ([9]; Homo sapiens, log of concentration leading to 50% net cell death, read-out: mean graph midpoint (MG_MID) of Log10 LC50 (converted)): ≥ 100 µM
mean graph midpoint (MG_MID) of Log10 TGI ([9]; log of concentration resulting in total inhibition of net cell growth): 4.80
GI50 (Renal cancer cell lines; Renal panel, log of concentration in mol/L causing 50% inhibition of net cell growth, read-out: mean graph midpoint (MG_MID) of Log10 GI50 (converted)): 4.68 µM
LC50 (Renal cancer cell lines; Renal panel, log of concentration leading to 50% net cell death, read-out: mean graph midpoint (MG_MID) of Log10 LC50 (converted)): 95.5 µM
GI50 (Renal cancer cell lines; eight renal cancer cell lines, exposure at least 48 hrs, read-out: GI50, range over the panel): 3.4 to 6.08 µM
